Data taken from paper PMC11684029, “Discovery of VU6024578/BI02982816: An mGlu1 Positive Allosteric Modulator with Efficacy in Preclinical Antipsychotic and Cognition Models” (Journal of Medicinal Chemistry, 2024).

Tests used:
Experiment in all cases: Eurofins radioligand binding panel
dopamine transporter = biological target: T1, dopamine transporter (Homo sapiens, UniProt Q01959); details: antagonist radioligand
T1 construct: Eurofins
Source text: (§1) Table S1. Eurofins Lead Profiling Screen Data
(§2) This is a radioligand binding panel of 80 targets including GPCRs, ion channels, transporters and nuclear hormones. Biochemical assay results are presented as the percent inhibition of specific […]
(§3) Results showing an inhibition or stimulation higher than 50% are considered to represent significant effect and are highlighted

ETB = biological target: T2, ETB (Homo sapiens, UniProt P24530); details: agonist radioligand
T2 construct: Eurofins (panel run as a service)
Source text: as §1, §2, §3

5-HT7 = biological target: T3, 5-HT7 (Homo sapiens, UniProt P34969); details: agonist radioligand
T3 construct: Eurofins
Source text: as §1, §2, §3

MC4 = biological target: T4, MC4 (Homo sapiens, UniProt P32245); details: agonist radioligand
T4 construct: Eurofins
Source text: as §1, §2, §3

M3 = biological target: T5, M3 (Homo sapiens, UniProt P20309); details: antagonist radioligand
T5 construct: Eurofins
Source text: as §1, §2, §3

5-HT transporter = biological target: T6, 5-HT transporter (Homo sapiens, UniProt P31645); details: antagonist radioligand
T6 construct: Eurofins
Source text: as §1, §2, §3

CXCR2 (IL-8B) = biological target: T7, CXCR2 (IL-8B) (Homo sapiens, UniProt P25025); details: agonist radioligand
T7 construct: Eurofins (panel run as a service)
Source text: as §1, §2, §3

PAC1 (PACAP) = biological target: T8, PAC1 (PACAP) (Homo sapiens, UniProt P41586); details: agonist radioligand
T8 construct: Eurofins
Source text: as §1, §2, §3

CCR1 = biological target: T9, CCR1 (Homo sapiens, UniProt P32246); details: agonist radioligand
T9 construct: Eurofins (panel run as a service)
Source text: as §1, §2, §3

5-HT1B = biological target: T10, 5-HT1B (Homo sapiens, UniProt P28222); details: antagonist radioligand
T10 construct: Eurofins
Source text: as §1, §2, §3

H1 = biological target: T11, H1 (Homo sapiens, UniProt P35367); details: antagonist radioligand
T11 construct: Eurofins (panel run as a service)
Source text: as §1, §2, §3

P2X = details: agonist radioligand
Source text: as §1, §2, §3

ETA = biological target: T12, ETA (Homo sapiens, UniProt P25101); details: agonist radioligand
T12 construct: Eurofins (panel run as a service)
Source text: as §1, §2, §3

delta (DOP) = biological target: T13, delta (DOP) (Homo sapiens, UniProt P41143); details: agonist radioligand
T13 construct: Eurofins
Source text: as §1, §2, §3

MT1 (ML1A) = biological target: T14, MT1 (ML1A) (Homo sapiens, UniProt P48039); details: agonist radioligand
T14 construct: Eurofins
Source text: as §1, §2, §3

Y2 = biological target: T15, Y2 (Homo sapiens, UniProt P49146); details: agonist radioligand
T15 construct: Eurofins
Source text: as §1, §2, §3

V1a = biological target: T16, V1a (Homo sapiens, UniProt P37288); details: agonist radioligand
T16 construct: Eurofins
Source text: as §1, §2, §3

M4 = biological target: T17, M4 (Homo sapiens, UniProt P08173); details: antagonist radioligand
T17 construct: Eurofins
Source text: as §1, §2, §3

5-HT6 = biological target: T18, 5-HT6 (Homo sapiens, UniProt P50406); details: agonist radioligand
T18 construct: Eurofins
Source text: as §1, §2, §3

IP (PGI2) = biological target: T19, IP (PGI2) (Homo sapiens, UniProt P43119); details: agonist radioligand
T19 construct: Eurofins
Source text: as §1, §2, §3

D2S = biological target: T20, D2S (Homo sapiens, UniProt P14416); details: antagonist radioligand
T20 construct: Eurofins (panel run as a service)
Source text: as §1, §2, §3

5-HT3 = biological target: T21, 5-HT3 (Homo sapiens, UniProt P46098); details: antagonist radioligand
T21 construct: Eurofins
Source text: as §1, §2, §3

NK1 = biological target: T22, NK1 (Homo sapiens, UniProt P25103); details: agonist radioligand
T22 construct: Eurofins
Source text: as §1, §2, §3

Na+ channel (site 2) = details: antagonist radioligand
Source text: as §1, §2, §3

H2 = biological target: T23, H2 (Homo sapiens, UniProt P25021); details: antagonist radioligand
T23 construct: Eurofins (panel run as a service)
Source text: as §1, §2, §3

NK2 = biological target: T24, NK2 (Homo sapiens, UniProt P21452); details: agonist radioligand
T24 construct: Eurofins
Source text: as §1, §2, §3

Cl- channel (GABA-gated) = details: antagonist radioligand
Source text: as §1, §2, §3

D1 = biological target: T25, D1 (Homo sapiens, UniProt P21728); details: antagonist radioligand
T25 construct: Eurofins (panel run as a service)
Source text: as §1, §2, §3

D5 = biological target: T26, D5 (Homo sapiens, UniProt P21918); details: antagonist radioligand
T26 construct: Eurofins (panel run as a service)
Source text: as §1, §2, §3

NOP (ORL1) = biological target: T27, NOP (ORL1) (Homo sapiens, UniProt P41146); details: agonist radioligand
T27 construct: Eurofins
Source text: as §1, §2, §3

GR = biological target: T28, GR (Homo sapiens, UniProt P04150); details: agonist radioligand
T28 construct: Eurofins
Source text: as §1, §2, §3

GAL2 = biological target: T29, GAL2 (Homo sapiens, UniProt O43603); details: agonist radioligand
T29 construct: Eurofins (panel run as a service)
Source text: as §1, §2, §3

kappa (KOP) = biological target: T30, kappa (KOP) (Homo sapiens, UniProt P41145); details: agonist radioligand
T30 construct: Eurofins
Source text: as §1, §2, §3

EP2 = biological target: T31, EP2 (Homo sapiens, UniProt P43116); details: agonist radioligand
T31 construct: Eurofins
Source text: as §1, §2, §3

5-HT5a = biological target: T32, 5-HT5a (Homo sapiens, UniProt P47898); details: agonist radioligand
T32 construct: Eurofins
Source text: as §1, §2, §3

M2 = biological target: T33, M2 (Homo sapiens, UniProt P08172); details: antagonist radioligand
T33 construct: Eurofins
Source text: as §1, §2, §3

NTS1 (NT1) = biological target: T34, NTS1 (NT1) (Homo sapiens, UniProt P30989); details: agonist radioligand
T34 construct: Eurofins
Source text: as §1, §2, §3

5-HT2C = biological target: T35, 5-HT2C (Homo sapiens, UniProt P28335); details: antagonist radioligand
T35 construct: Eurofins
Source text: as §1, §2, §3

mu (MOP) = biological target: T36, mu (MOP) (Homo sapiens, UniProt P35372); details: agonist radioligand
T36 construct: Eurofins
Source text: as §1, §2, §3

5-HT2A = biological target: T37, 5-HT2A (Homo sapiens, UniProt P28223); details: antagonist radioligand
T37 construct: Eurofins
Source text: as §1, §2, §3

PPARgamma = biological target: T38, PPARgamma (Homo sapiens, UniProt P37231); details: agonist radioligand
T38 construct: Eurofins
Source text: as §1, §2, §3

M5 = biological target: T39, M5 (Homo sapiens, UniProt P08912); details: antagonist radioligand
T39 construct: Eurofins
Source text: as §1, §2, §3

NK3 = biological target: T40, NK3 (Homo sapiens, UniProt P29371); details: antagonist radioligand
T40 construct: Eurofins
Source text: as §1, §2, §3

VPAC1 (VIP1) = biological target: T41, VPAC1 (VIP1) (Homo sapiens, UniProt P32241); details: agonist radioligand
T41 construct: Eurofins
Source text: as §1, §2, §3

T16 sequence (P37288 whole entry): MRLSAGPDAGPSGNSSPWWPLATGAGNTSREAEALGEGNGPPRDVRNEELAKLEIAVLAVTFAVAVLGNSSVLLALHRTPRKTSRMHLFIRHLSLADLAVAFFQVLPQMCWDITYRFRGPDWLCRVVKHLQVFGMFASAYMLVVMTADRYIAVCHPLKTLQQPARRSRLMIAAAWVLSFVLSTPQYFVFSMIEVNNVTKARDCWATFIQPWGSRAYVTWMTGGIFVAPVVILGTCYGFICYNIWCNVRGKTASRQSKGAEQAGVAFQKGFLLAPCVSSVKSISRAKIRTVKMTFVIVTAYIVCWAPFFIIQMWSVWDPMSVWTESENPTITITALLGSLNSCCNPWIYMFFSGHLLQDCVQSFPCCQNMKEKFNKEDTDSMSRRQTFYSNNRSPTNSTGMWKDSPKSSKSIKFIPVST
T5 sequence (P20309 whole entry): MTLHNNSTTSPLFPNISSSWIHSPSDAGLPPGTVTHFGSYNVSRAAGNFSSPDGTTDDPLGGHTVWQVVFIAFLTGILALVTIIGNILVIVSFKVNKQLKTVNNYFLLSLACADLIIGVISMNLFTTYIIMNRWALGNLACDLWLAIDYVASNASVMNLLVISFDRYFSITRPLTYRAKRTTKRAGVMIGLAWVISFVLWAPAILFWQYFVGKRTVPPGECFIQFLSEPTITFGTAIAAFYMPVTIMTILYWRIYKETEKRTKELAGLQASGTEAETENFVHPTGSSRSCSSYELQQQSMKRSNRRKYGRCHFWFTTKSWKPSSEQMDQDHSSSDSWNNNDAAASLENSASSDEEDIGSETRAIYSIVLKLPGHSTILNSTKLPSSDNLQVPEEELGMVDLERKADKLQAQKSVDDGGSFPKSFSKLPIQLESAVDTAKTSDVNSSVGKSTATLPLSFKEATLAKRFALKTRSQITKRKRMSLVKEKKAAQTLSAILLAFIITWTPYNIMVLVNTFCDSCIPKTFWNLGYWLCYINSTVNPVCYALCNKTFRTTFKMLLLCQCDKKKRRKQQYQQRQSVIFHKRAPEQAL
T34 sequence (P30989 whole entry): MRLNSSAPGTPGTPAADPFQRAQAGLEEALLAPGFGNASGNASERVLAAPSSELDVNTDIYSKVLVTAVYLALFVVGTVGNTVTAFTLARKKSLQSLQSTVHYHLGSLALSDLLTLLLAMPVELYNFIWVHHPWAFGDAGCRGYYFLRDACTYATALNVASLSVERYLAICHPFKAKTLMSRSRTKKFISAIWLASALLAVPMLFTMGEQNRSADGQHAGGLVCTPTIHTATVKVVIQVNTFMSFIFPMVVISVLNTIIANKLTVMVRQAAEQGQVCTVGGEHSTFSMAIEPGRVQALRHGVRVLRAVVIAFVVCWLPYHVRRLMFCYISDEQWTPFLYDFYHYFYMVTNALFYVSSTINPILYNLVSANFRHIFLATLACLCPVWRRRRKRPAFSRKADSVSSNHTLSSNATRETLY
T35 sequence (P28335 33-458): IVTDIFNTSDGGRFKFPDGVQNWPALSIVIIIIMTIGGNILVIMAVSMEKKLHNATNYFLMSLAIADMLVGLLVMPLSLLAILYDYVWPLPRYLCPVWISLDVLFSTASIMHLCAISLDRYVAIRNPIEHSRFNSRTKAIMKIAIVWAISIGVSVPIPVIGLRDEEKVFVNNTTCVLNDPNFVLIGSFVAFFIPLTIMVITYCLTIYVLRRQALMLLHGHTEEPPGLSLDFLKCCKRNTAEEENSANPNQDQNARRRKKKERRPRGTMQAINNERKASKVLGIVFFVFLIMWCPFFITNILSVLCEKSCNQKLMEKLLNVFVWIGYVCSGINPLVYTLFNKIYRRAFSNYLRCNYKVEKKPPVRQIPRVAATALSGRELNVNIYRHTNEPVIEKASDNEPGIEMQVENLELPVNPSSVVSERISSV
T20 sequence (P14416 1-414 isoform P14416-2): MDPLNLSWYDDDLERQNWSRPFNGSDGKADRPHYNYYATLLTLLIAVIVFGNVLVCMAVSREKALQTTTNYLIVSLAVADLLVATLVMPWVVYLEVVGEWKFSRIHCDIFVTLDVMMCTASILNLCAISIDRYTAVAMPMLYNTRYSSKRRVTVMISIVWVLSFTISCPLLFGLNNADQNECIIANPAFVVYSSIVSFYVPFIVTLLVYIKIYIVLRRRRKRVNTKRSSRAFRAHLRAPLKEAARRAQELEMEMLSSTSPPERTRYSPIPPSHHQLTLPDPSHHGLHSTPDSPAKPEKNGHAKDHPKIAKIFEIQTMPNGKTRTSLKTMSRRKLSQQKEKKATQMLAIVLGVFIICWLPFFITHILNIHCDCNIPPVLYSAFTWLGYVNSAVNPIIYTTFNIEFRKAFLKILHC
T23 sequence (P25021 whole entry): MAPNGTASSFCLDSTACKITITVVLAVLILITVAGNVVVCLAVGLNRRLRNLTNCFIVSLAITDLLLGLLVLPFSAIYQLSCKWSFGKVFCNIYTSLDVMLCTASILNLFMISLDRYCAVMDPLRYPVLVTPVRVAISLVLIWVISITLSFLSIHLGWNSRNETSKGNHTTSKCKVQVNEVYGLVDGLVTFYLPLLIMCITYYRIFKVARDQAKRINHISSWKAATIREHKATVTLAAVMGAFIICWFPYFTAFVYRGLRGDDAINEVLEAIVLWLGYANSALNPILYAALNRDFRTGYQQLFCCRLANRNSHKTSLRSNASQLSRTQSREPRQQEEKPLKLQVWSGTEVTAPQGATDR
T31 sequence (P43116 whole entry): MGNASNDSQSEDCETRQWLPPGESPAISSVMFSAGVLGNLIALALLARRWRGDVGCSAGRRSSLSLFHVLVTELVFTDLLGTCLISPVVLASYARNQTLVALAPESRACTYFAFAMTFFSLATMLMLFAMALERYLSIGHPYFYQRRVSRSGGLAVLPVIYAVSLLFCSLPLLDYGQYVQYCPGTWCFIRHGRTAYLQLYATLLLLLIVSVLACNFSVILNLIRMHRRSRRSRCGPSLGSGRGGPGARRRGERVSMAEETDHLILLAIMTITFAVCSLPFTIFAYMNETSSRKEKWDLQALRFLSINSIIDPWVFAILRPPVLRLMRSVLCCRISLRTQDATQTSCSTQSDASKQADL
T19 sequence (P43119 whole entry): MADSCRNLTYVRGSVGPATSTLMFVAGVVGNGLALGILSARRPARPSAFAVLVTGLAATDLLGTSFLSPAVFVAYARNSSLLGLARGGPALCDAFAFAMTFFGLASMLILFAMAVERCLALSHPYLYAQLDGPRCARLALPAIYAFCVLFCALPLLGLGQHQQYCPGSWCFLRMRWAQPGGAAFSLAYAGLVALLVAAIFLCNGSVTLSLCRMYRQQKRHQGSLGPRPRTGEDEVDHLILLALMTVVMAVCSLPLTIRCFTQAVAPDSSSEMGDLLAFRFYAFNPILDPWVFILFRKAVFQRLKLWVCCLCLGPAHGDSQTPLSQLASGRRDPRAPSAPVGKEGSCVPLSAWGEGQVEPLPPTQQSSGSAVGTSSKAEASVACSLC
T11 sequence (P35367 whole entry): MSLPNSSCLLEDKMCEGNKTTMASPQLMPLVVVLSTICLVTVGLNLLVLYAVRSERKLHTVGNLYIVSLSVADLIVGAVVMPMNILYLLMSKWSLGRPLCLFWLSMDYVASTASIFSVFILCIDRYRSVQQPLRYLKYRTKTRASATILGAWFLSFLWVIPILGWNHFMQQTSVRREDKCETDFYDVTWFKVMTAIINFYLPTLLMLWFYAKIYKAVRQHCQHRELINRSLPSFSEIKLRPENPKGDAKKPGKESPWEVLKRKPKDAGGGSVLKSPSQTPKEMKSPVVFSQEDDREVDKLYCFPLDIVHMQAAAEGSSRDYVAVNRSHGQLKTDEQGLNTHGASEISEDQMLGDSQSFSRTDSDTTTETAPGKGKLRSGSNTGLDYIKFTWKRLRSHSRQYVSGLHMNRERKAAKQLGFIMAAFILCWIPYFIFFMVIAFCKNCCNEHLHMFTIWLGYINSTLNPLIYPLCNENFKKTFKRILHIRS
T1 sequence (Q01959 whole entry): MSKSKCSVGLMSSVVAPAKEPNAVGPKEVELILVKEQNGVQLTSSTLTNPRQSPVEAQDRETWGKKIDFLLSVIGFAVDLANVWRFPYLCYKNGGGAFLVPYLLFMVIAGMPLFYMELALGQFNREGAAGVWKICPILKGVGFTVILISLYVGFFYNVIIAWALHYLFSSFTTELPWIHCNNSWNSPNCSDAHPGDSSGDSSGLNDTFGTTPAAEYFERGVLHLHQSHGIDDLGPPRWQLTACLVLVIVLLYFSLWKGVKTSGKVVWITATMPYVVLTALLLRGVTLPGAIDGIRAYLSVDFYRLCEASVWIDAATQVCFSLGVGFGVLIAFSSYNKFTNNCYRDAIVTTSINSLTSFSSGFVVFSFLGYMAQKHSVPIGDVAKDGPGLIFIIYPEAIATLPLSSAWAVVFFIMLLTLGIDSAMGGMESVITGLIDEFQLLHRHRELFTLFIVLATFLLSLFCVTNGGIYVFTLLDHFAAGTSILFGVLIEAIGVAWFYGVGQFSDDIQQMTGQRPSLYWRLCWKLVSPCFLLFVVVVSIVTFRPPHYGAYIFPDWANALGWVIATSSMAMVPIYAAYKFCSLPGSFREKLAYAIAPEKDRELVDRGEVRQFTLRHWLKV
T2 sequence (P24530 27-442): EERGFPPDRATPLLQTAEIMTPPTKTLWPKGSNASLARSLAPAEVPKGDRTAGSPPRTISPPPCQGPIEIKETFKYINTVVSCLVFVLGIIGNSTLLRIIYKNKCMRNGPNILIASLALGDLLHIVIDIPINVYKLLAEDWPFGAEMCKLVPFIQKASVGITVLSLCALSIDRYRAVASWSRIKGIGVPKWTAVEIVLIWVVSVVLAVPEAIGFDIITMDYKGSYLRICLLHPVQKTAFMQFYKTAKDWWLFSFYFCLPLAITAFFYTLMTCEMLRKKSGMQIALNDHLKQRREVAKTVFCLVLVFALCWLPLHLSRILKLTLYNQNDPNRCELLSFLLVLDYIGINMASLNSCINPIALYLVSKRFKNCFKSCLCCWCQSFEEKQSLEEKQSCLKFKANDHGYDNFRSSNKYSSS

SMILES: Cn1nc(-c2ccnn2C)cc1CNC(=O)c1cc(-c2ccco2)ccc1Cl [Compound 19d, 2-Chloro-N-((1,2′-dimethyl-1H,2’H-[3,3′-bipyrazol]-5-yl)methyl)-5-(furan-2-yl)benzamide]
- inhibition at 10 µM (dopamine transporter): 37%
- inhibition at 10 µM (ETB): -27%
- inhibition at 10 µM (5-HT7): -4%
- inhibition at 10 µM (MC4): 14%
- inhibition at 10 µM (M3): 2%
- inhibition at 10 µM (5-HT transporter): 47%
- inhibition at 10 µM (CXCR2 (IL-8B)): 3%
- inhibition at 10 µM (PAC1 (PACAP)): -2%
- inhibition at 10 µM (CCR1): -1%
- inhibition at 10 µM (5-HT1B): 11%
- inhibition at 10 µM (H1): 6%
- % Inhibition at 10 µM (P2X): -6%
- inhibition at 10 µM (ETA): -6%
- inhibition at 10 µM (delta (DOP)): 8%
- inhibition at 10 µM (MT1 (ML1A)): 17%
- inhibition at 10 µM (Y2): -18%
- inhibition at 10 µM (V1a): 9%
- inhibition at 10 µM (M4): 11%
- inhibition at 10 µM (5-HT6): -7%
- inhibition at 10 µM (IP (PGI2)): -7%
- inhibition at 10 µM (D2S): 6%
- inhibition at 10 µM (5-HT3): 2%
- inhibition at 10 µM (NK1): 46%
- % Inhibition at 10 µM (Na+ channel (site 2)): 14%
- inhibition at 10 µM (H2): -31%
- inhibition at 10 µM (NK2): 11%
- % Inhibition at 10 µM (Cl- channel (GABA-gated)): 9%
- inhibition at 10 µM (D1): 3%
- inhibition at 10 µM (D5): -1%
- inhibition at 10 µM (NOP (ORL1)): -1%
- inhibition at 10 µM (GR): 0%
- inhibition at 10 µM (GAL2): -9%
- inhibition at 10 µM (kappa (KOP)): 11%
- inhibition at 10 µM (EP2): 41%
- inhibition at 10 µM (5-HT5a): -2%
- inhibition at 10 µM (M2): 18%
- inhibition at 10 µM (NTS1 (NT1)): -1%
- inhibition at 10 µM (5-HT2C): 3%
- inhibition at 10 µM (mu (MOP)): 14%
- inhibition at 10 µM (5-HT2A): -1%
- inhibition at 10 µM (PPARgamma): 2%
- inhibition at 10 µM (M5): 3%
- inhibition at 10 µM (NK3): -8%
- inhibition at 10 µM (VPAC1 (VIP1)): -4%
